Reference: ChEMBL document CHEMBL1201862, “PubChem BioAssay data set” (2004)
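Protocol summary: plate cells (96-well), add compound at 5 concentrations, incubate 48 h, interpolate endpoints linearly. The concentration for 50% growth inhibition is given as GI50.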 The source made the active and inactive calls. Cut-off read from the data, not from the text of the source: active = GI50 up to about 1.1 µM and inactive = higher.

How the values were obtained:
Experiment in all cases: DTP human tumour cell line panel, 48 h
DU-145 = system: DU-145
HT-29 = system: HT-29
SN12C = system: SN12C
786-0 = system: 786-0
MDA-N = system: MDA-N
BT-549 = system: BT-549
NCI/ADR-RES = system: NCI/ADR-RES
K562 = system: K562
U-251 = system: U-251
SNB-19 = system: SNB-19
UACC-257 = system: UACC-257
OVCAR-8 = system: OVCAR-8
SW-620 = system: SW-620
NCI-H522 = system: NCI-H522
NCI-H226 = system: NCI-H226
MDA-MB-231 = system: MDA-MB-231
HL-60 = system: HL-60
SF-295 = system: SF-295
T47D = system: T47D
SK-MEL-2 = system: SK-MEL-2
TK-10 = system: TK-10
HCT-116 = system: HCT-116
UACC-62 = system: UACC-62
Malme-3M = system: Malme-3M
OVCAR-5 = system: OVCAR-5
SK-MEL-28 = system: SK-MEL-28
HOP-62 = system: HOP-62
HCC 2998 = system: HCC 2998
PC-3 = system: PC-3
MCF7 = system: MCF7
MDA-MB-435 = system: MDA-MB-435
HCT-15 = system: HCT-15
SF-539 = system: SF-539
SK-OV-3 = system: SK-OV-3
EKVX = system: EKVX
MOLT-4 = system: MOLT-4
CCRF-CEM = system: CCRF-CEM
SNB-75 = system: SNB-75
A549 = system: A549
KM12 = system: KM12
Hs-578T = system: Hs-578T
M14 = system: M14
LOX IMVI = system: LOX IMVI
RXF 393 = system: RXF 393
OVCAR-3 = system: OVCAR-3
OVCAR-4 = system: OVCAR-4
SK-MEL-5 = system: SK-MEL-5
IGROV-1 = system: IGROV-1
SF-268 = system: SF-268
NCI-H460 = system: NCI-H460
UO-31 = system: UO-31
CAKI-1 = system: CAKI-1
ACHN = system: ACHN
NCI-H23 = system: NCI-H23
SR = system: SR
RPMI-8226 = system: RPMI-8226
COLO 205 = system: COLO 205
A498 = system: A498

Measured: GI50

O=C1CCC2(CCO1)OCCO2
> 100 µM: HCT-15
inactive: DU-145 > 100 µM | HT-29 > 100 µM | SN12C > 100 µM | 786-0 > 100 µM | MDA-N > 100 µM | BT-549 > 100 µM | NCI/ADR-RES > 100 µM | K562 > 100 µM | U-251 > 100 µM | SNB-19 > 100 µM | UACC-257 > 100 µM | OVCAR-8 > 100 µM | SW-620 > 100 µM | NCI-H522 > 100 µM | NCI-H226 > 100 µM | MDA-MB-231 > 100 µM | HL-60 > 100 µM | SF-295 > 100 µM | T47D > 100 µM | SK-MEL-2 > 100 µM | TK-10 > 100 µM | HCT-116 > 100 µM | UACC-62 > 100 µM | Malme-3M > 100 µM | OVCAR-5 > 100 µM | SK-MEL-28 > 100 µM | HOP-62 > 100 µM | HCC 2998 > 100 µM | PC-3 > 100 µM | MCF7 > 100 µM | MDA-MB-435 > 100 µM | SF-539 > 100 µM | SK-OV-3 > 100 µM | EKVX > 100 µM | MOLT-4 > 100 µM | CCRF-CEM > 100 µM | SNB-75 > 100 µM | A549 > 100 µM | KM12 > 100 µM | Hs-578T > 100 µM | M14 > 100 µM | LOX IMVI > 100 µM | RXF 393 > 100 µM | OVCAR-3 > 100 µM | OVCAR-4 > 100 µM | SK-MEL-5 > 100 µM | IGROV-1 > 100 µM | SF-268 > 100 µM | NCI-H460 > 100 µM | UO-31 > 100 µM | CAKI-1 > 100 µM | ACHN > 100 µM | NCI-H23 > 100 µM | SR > 100 µM

CCc1n[nH]c(=O)n1N1C(=O)CCC1=O
inactive: DU-145 > 100 µM | HT-29 > 100 µM | SN12C > 100 µM | 786-0 > 100 µM | MDA-N > 100 µM | BT-549 > 100 µM | NCI/ADR-RES > 100 µM | K562 > 100 µM | U-251 > 100 µM | SNB-19 > 100 µM | UACC-257 > 100 µM | OVCAR-8 > 100 µM | SW-620 > 100 µM | NCI-H522 > 100 µM | NCI-H226 > 100 µM | MDA-MB-231 > 100 µM | SF-295 > 100 µM | T47D > 100 µM | SK-MEL-2 > 100 µM | RPMI-8226 > 100 µM | TK-10 > 100 µM | HCT-116 > 100 µM | UACC-62 > 100 µM | Malme-3M > 100 µM | OVCAR-5 > 100 µM | SK-MEL-28 > 100 µM | COLO 205 > 100 µM | HOP-62 > 100 µM | HCC 2998 > 100 µM | PC-3 > 100 µM | MCF7 > 100 µM | MDA-MB-435 > 100 µM | SK-OV-3 > 100 µM | EKVX > 100 µM | MOLT-4 > 100 µM | CCRF-CEM > 100 µM | SNB-75 > 100 µM | A549 > 100 µM | KM12 > 100 µM | Hs-578T > 100 µM | M14 > 100 µM | LOX IMVI > 100 µM | RXF 393 > 100 µM | OVCAR-3 > 100 µM | OVCAR-4 > 100 µM | SK-MEL-5 > 100 µM | A498 > 100 µM | IGROV-1 > 100 µM | SF-268 > 100 µM | NCI-H460 > 100 µM | UO-31 > 100 µM | CAKI-1 > 100 µM | ACHN > 100 µM | SR > 100 µM
> 100 µM: HCT-15
